Laboratory results: BindingDB's records for doi:10.1021/jm801627a (Vernalis (R&D), 2009)

Target: Heat shock 70 kDa protein 1A (Homo sapiens, UniProt P0DMV8)
Assay: HSP70 Fluorescence Polarization Assay
Settings: pH 7.4; 23 °C
Procedure: A fluorescein-labeled ATP-based probe was utilized, which binds to the GST fused ATPase domain (amino acids 3-383) of HSP70, producing an increase in mP. The presence of a compound which competitively binds to the same site as the probe would lead to decreased mP values, by increasing the amount of free probe. Compounds were tested as 10-point IC50s. Assay mixtures were incubated for three hours prior to reading on the Fusion (ex 485 nm; em 535 nm). The data was fitted using a 4 parameter logistical data model by XLFit 4 (IDBS).

Chain of Heat shock 70 kDa protein 1A (P0DMV8 whole entry): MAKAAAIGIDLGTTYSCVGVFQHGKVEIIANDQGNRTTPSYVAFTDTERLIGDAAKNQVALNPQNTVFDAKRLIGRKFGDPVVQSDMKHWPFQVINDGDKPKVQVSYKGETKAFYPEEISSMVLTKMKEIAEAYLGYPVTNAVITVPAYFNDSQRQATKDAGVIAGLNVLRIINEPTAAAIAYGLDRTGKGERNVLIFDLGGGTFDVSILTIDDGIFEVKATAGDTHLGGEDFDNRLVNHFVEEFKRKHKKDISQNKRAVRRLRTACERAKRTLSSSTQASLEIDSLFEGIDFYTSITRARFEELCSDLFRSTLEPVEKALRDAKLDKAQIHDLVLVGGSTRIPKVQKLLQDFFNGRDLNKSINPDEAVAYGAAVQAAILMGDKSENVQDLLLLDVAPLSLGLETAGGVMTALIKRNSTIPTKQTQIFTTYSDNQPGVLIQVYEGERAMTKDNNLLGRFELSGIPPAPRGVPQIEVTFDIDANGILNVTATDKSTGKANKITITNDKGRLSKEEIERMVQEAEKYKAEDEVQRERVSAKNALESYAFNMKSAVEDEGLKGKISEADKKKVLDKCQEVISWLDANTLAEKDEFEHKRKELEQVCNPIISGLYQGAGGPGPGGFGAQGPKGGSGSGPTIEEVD

## Nc1ncnc2c1nc(NCc1ccc3ncccc3c1)n2[C@@H]1O[C@H](COCc2cc(F)c(F)c(F)c2)[C@@H](O)[C@H]1O [adenosine-derived inhibitor, 17]
  IC50: < 400 nM
